The values that follow come from US9447028B2, “Therapeutic aryl-amido-aryl compounds and their use” (King's College London, priority 2009, dated 2016).

Bounds are passed on as bounds.

Format in all cases: cell-based
One assay concerns the target T1, RARγ (Homo sapiens, UniProt P13631).
T1 construct: gal4 (fusion partner); expressed in transfected cells; host or cells: COS-7
T1 sequence (P13631 185-419 limits assumed): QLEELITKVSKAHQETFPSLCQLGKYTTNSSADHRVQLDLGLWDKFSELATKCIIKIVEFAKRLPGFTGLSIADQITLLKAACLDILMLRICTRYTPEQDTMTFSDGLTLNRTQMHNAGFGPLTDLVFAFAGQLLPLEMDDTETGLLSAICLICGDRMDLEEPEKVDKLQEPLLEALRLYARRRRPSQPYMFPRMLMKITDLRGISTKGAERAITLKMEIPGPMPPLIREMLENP
The assay is described as follows: Transactivation assay for RAR gamma (gal4-RAR fusion, luciferase reporter, COS-7 cells). To be noted: ratio of test compound EC50 to that of atRA; inactive = no agonist action at the highest concentration tested. The gist of the method:
(§1)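 COS-7 cells co-transfected with gal4–RAR ligand-binding-domain fusion and pFR-luc reporter, then treated with compound in phenol-red-free DMEM (1% DMSO) for about one day. Luciferase read after lysis with BrightGlo; EC50 values from replicate experiments given as a ratio of means.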
For orientation: In a reporter assay the amount or activity of a reporter protein is the signal.

For the next assay, the target named is T2, RARα (Homo sapiens, UniProt P10276).
T2 construct: gal4 (fusion partner); expressed in transfected cells; host or cells: COS-7
T2 sequence (P10276 183-417 limits assumed): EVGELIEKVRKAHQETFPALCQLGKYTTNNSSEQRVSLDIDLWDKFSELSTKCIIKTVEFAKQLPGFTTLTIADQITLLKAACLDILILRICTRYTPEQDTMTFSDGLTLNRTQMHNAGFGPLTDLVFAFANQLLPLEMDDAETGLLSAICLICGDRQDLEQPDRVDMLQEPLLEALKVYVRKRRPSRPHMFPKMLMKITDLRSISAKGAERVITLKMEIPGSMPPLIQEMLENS
The assay is described as follows: Transactivation assay for RAR alpha (gal4-RAR fusion, luciferase reporter, COS-7 cells). The conditions noted are these: for RARα/RARβ ratio (*): fold-selectivity for RARα over RARβ; for RARα activity ratio: ratio of test compound EC50 to that of atRA on the same plate. The gist of the method: as §1

The target of another assay is T3, RARβ (Homo sapiens, UniProt P10826).
T3 construct: gal4 (fusion partner); expressed in transfected cells; host or cells: COS-7
T3 sequence (P10826 183-417 limits assumed): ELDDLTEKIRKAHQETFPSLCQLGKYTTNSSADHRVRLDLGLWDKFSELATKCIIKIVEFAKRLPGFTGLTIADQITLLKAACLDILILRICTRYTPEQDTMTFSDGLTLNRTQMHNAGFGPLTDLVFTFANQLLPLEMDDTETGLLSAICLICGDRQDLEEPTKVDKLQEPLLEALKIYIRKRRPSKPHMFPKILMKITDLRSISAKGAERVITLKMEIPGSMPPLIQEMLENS
The experiment in a line: Transactivation assay for RAR beta (gal4-RAR fusion, luciferase reporter, COS-7 cells). To be noted: ratio of test compound EC50 to that of atRA; inactive = no agonist action at the highest concentration tested. The procedure, abridged: as §1

Consider `CCOc1c(Br)cc(C(=O)Nc2ccc(C(=O)O)c(C)c2)cc1C(F)(F)F` [AAA-071, 4-(3-Bromo-4-ethoxy-5-(trifluoromethyl)benzamido)-2-methylbenzoic acid], for which the RARγ activity ratio at RARγ came out at 13333. Further, on RARα, the “RARα/RARβ ratio (*)” value was determined as 31 and the RARα activity ratio worked out at 5.2. The RARβ activity ratio on RARβ was determined as 160.
With `CCOc1c(F)cc(C(=O)Nc2ccc(C(=O)O)cc2)cc1F` [AAA-073, 4-(4-Ethoxy-3,5-difluorobenzamido)benzoic acid], the RARγ activity ratio at RARγ is 220. Besides, on RARα, the “RARα/RARβ ratio (*)” value turned out to be 6 and the RARα activity ratio worked out at 19. For the same molecule, on RARβ, the RARβ activity ratio stood at 117.
For the molecule `Cc1cc(NC(=O)c2cc(F)c(OC(C)C)c(Cl)c2)ccc1C(=O)O` [AAA-074, 4-(3-Chloro-5-fluoro-4-isopropoxybenzamido)-2-methylbenzoic acid], the RARγ activity ratio at RARγ turned out to be 14500. For the same molecule, at RARα, the “RARα/RARβ ratio (*)” value amounted to 210 and the RARα activity ratio was 154. The RARβ activity ratio on RARβ is 32400.
In the case of `COc1c(Cl)cc(C(=O)Nc2ccc(C(=O)O)c(C)c2)cc1OC(C)C` [AAA-075, 4-(3-Chloro-5-isopropoxy-4-methoxybenzamido)-2-methylbenzoic acid], at RARγ, the RARγ activity ratio stood at 2394. For the same molecule, on RARα, the “RARα/RARβ ratio (*)” value amounted to 241 and the RARα activity ratio was found to be 4.7. Besides, the RARβ activity ratio at RARβ is on record as 1134.
In the case of `COc1c(Cl)cc(C(=O)Nc2ccc(C(=O)O)c(F)c2)cc1OC(C)C` [AAA-077, 4-(3-Chloro-5-isopropoxy-4-methoxybenzamido)-2-fluorobenzoic acid], the RARγ activity ratio on RARγ was 117857. In addition, at RARα, the “RARα/RARβ ratio (*)” value amounted to 609 and the RARα activity ratio stood at 6.7. On RARβ, the RARβ activity ratio is listed as 4082.
On the same counts, the results for `CCOc1c(Cl)cc(C(=O)Nc2ccc(C(=O)O)c(F)c2)cc1OC(C)C` [AAA-079, 4-(3-Chloro-4-ethoxy-5-isopropoxybenzamido)-2-fluorobenzoic acid] are 6786, 487, 1.1 and 536.
With `CCOc1c(Cl)cc(C(=O)Nc2ccc(C(=O)O)c(C)c2)cc1OC(C)C` [AAA-080, 4-(3-Chloro-4-ethoxy-5-isopropoxybenzamido)-2-methylbenzoic acid], the RARγ activity ratio at RARγ came to 17460. The RARα activity ratio at RARα is on record as 1.6. The RARβ activity ratio on RARβ is 318.
Consider `CCOc1c(Cl)cc(C(=O)Nc2ccc(C(=O)O)c(O)c2)cc1OC(C)C` [AAA-081, 4-(3-Chloro-4-ethoxy-5-isopropoxybenzamido)-2-hydroxybenzoic acid], for which, at RARγ, the RARγ activity ratio is greater than 27000. On RARα, the “RARα/RARβ ratio (*)” value stood at 161 and the RARα activity ratio is recorded as 9.0. Further, at RARβ, the RARβ activity ratio is 1453.
`CCOc1c(Cl)cc(C(=O)Nc2ccc(C(=O)O)nn2)cc1OC(C)C` [AAA-082, 6-(3-Chloro-4-ethoxy-5-isopropoxybenzamido)pyridazine-3-carboxylic acid]: the RARγ activity ratio on RARγ is reported as greater than 56000. At RARα, the “RARα/RARβ ratio (*)” value was 275 and the RARα activity ratio is recorded as 25. Moreover, at RARβ, the RARβ activity ratio worked out at 6885.
For the molecule `COc1cc(C(=O)Nc2ccc(C(=O)O)cc2)cc(Cl)c1OC(C)C` [AAA-083, 4-(3-Chloro-4-isopropoxy-5-methoxybenzamido)benzoic acid], the RARγ activity ratio at RARγ is 4390. At RARα, the “RARα/RARβ ratio (*)” value is reported as 10 and the RARα activity ratio came out at 9. For the same molecule, the RARβ activity ratio at RARβ was found to be 90.
`CCOc1c(Cl)cc(C(=O)Nc2ccc(C(=O)O)cc2)cc1OC` [AAA-084, 4-(3-Chloro-4-ethoxy-5-methoxybenzamido)benzoic acid]: on RARγ, the RARγ activity ratio was greater than 1400. At RARα, the “RARα/RARβ ratio (*)” value was found to be 234 and the RARα activity ratio was found to be 26. The RARβ activity ratio on RARβ was found to be 6087.
In the same order, the values of `CCOc1c(Cl)cc(C(=O)Nc2ccc(C(=O)O)c(C)c2)cc1OC` [AAA-085, 4-(3-Chloro-4-ethoxy-5-methoxybenzamido)-2-methylbenzoic acid] are greater than 8300, 210, 33 and 6923.
As to `CCOc1cc(C(=O)Nc2ccc(C(=O)O)cc2)cc(Cl)c1OC(C)C` [AAA-086, 4-(3-Chloro-5-ethoxy-4-isopropoxybenzamido)benzoic acid], on RARγ, the RARγ activity ratio was 1203. At RARα, the “RARα/RARβ ratio (*)” value turned out to be 3.1 and the RARα activity ratio was found to be 2.1. For the same molecule, the RARβ activity ratio at RARβ turned out to be 7.
Consider `CCOc1cc(C(=O)Nc2ccc(C(=O)O)c(C)c2)cc(Cl)c1OC(C)C` [AAA-087, 4-(3-Chloro-5-ethoxy-4-isopropoxybenzamido)-2-methylbenzoic acid], for which the RARγ activity ratio on RARγ amounted to 11725. In addition, at RARα, the “RARα/RARβ ratio (*)” value came out at 286 and the RARα activity ratio was 7. At RARβ, the RARβ activity ratio came to 2000.
As to `CCOc1c(Cl)cc(C(=O)Nc2ccc(C(=O)O)cc2)cc1OCC1CC1` [AAA-089, 4-(3-Chloro-5-(cyclopropylmethoxy)-4-ethoxybenzamido)benzoic acid], at RARγ, the RARγ activity ratio is listed as 2647. In addition, at RARα, the “RARα/RARβ ratio (*)” value was determined as 392 and the RARα activity ratio is on record as 1.3. In addition, the RARβ activity ratio at RARβ is 510.
In the same order, the values of `CCOc1c(Cl)cc(C(=O)Nc2ccc(C(=O)O)c(O)c2)cc1OCC1CC1` [AAA-090, 4-(3-Chloro-5-(cyclopropylmethoxy)-4-ethoxybenzamido)-2-hydroxybenzoic acid] are 367000, 250, 5.0 and 1250.
On the same counts, the results for `CC(C)Oc1cc(C(=O)Nc2ccc(C(=O)O)c(O)c2)cc(Cl)c1OC(C)C` [AAA-091, 4-(3-Chloro-4,5-diisopropoxybenzamido)-2-hydroxybenzoic acid] are 75000, 135, 1.6 and 216.
In the case of `O=C(O)c1ccc(NC(=O)c2cc(Cl)c(OC3CCC3)c(OC3CCC3)c2)cc1` [AAA-092, 4-(3-Chloro-4,5-di(cyclobutyloxy)benzamido)benzoic acid], at RARγ, the RARγ activity ratio is reported as 1059. For the same molecule, at RARα, the “RARα/RARβ ratio (*)” value is on record as 27 and the RARα activity ratio is recorded as 2. Besides, the RARβ activity ratio at RARβ is on record as 53.
Consider `Cc1cc(NC(=O)c2cc(Cl)c(OC3CCC3)c(OC3CCC3)c2)ccc1C(=O)O` [AAA-093, 4-(3-Chloro-4,5-di(cyclobutyloxy)benzamido)-2-methylbenzoic acid], for which the RARγ activity ratio at RARγ came out at 10833. Moreover, on RARα, the “RARα/RARβ ratio (*)” value was found to be 46 and the RARα activity ratio came to 2.0. Besides, the RARβ activity ratio at RARβ came out at 92.
As for `O=C(Nc1ccc(C(=O)O)c(O)c1)c1cc(Cl)c(OC2CCC2)c(OC2CCC2)c1` [AAA-094, 4-(3-Chloro-4,5-di(cyclobutyloxy)benzamido)-2-hydroxybenzoic acid], on RARγ, the RARγ activity ratio came to 20000. Moreover, at RARα, the “RARα/RARβ ratio (*)” value turned out to be 2852 and the RARα activity ratio was found to be 0.23. Further, the RARβ activity ratio at RARβ is given as 656.
For `CC(C)Oc1cc(C(=O)Nc2ccc(C(=O)O)c(F)c2)cc(Cl)c1OC(C)C` [AAA-095, 4-(3-Chloro-4,5-diisopropoxybenzamido)-2-fluorobenzoic acid], on RARγ, the RARγ activity ratio stood at 812. Also, on RARα, the “RARα/RARβ ratio (*)” value stood at 34 and the RARα activity ratio came out at 2.7. In addition, the RARβ activity ratio on RARβ was found to be 92.
On the same counts, the results for `CCOc1c(Cl)cc(C(=O)Nc2ccc(C(=O)O)c(C)c2)cc1OC1CCC1` [AAA-096, 4-(3-Chloro-5-(cyclobutoxy)-4-ethoxybenzamido)-2-methylbenzoic acid] are 7895, 67, 3.2 and 215.
Take `CCOc1c(Cl)cc(C(=O)Nc2ccc(C(=O)O)c(C)c2)cc1OCC1CC1` [AAA-097, 4-(3-Chloro-5-(cyclopropylmethoxy)-4-ethoxybenzamido)-2-methylbenzoic acid]: on RARγ, the RARγ activity ratio stood at 100000. At RARα, the “RARα/RARβ ratio (*)” value was found to be 58 and the RARα activity ratio amounted to 2.6. Also, the RARβ activity ratio at RARβ is given as 151.
